Here are results for nine molecules from patent US20230167105A1, “BCL-2 PROTEIN INHIBITORS” (Recurium IP Holdings, LLC, priority 2020, published 2023).

One experiment has as its system MOLT-4 cells. Description: MOLT-4 Cell Proliferation Assay (CellTiter-Glo). The following applies: Homo sapiens, 72 h, read-out: MOLT-4 CTG IC50. In kind it is cell-based. The method, boiled down:
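MOLT-4 cells at 50,000/well in serum-supplemented medium received a 10-point 1:3 dilution series (top 10 μM final, 0.1% DMSO) in duplicate for 72 h at 37 °C. Viability was read as CellTiter-Glo luminescence, and IC50 came from nonlinear regression.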
For orientation: Cellular ATP, detected with luciferase, serves as a proxy for viable cell number.

The target in another experiment is T1, Bcl-xL (Homo sapiens, UniProt Q07817).
T1 construct: endogenous in cells; host or cells: MOLT-4 (ATCC CRL-1582)
T1 sequence (Q07817 whole entry): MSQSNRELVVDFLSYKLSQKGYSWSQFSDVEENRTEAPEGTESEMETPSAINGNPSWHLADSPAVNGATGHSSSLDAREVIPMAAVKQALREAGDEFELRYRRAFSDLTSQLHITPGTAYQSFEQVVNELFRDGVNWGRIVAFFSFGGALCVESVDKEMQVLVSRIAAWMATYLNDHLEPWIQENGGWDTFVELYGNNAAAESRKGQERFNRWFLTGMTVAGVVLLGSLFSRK
Nature of the experiment: Protein Degradation Assay in MOLT-4 Cells (Western blot). In kind it is cell-based. The following applies: for BCL-xL degradation in MOLT-4 cells: 50 nM compound, 16 hours, FIGS. 7 and 8; for BCL-xL degradation in MOLT-4 cells, dose dependence: FIG. 9; for Bcl-xL degradation with proteasome inhibitor MG132: MOLT-4 cells pretreated with 1 μM MG132 for 1 hour, then 100 nM compound for 16 h, FIG. 10. The protocol: MOLT-4 (ATCC, CRL-1582) (FIGS. 7,8) were incubated with vehicle or 50 nM concentrations of the indicated compounds for 16 hours. For proteasome inhibition, MOLT-4 cells (250,000 cells/well) were pretreated with 1 μM of MG132 for 1 hour before the addition of 100 nM of the indicated compounds for 16 h. After treatment, the cells were harvested in RIPA lysis buffer supplemented with 1% Phosphatase Inhibitor and Protease Inhibitor Cocktail. An equal amount of protein (10 μg/lane) from each cell extract was resolved on a 4-12% Bis-Tris gel. Proteins were transferred using iBlot 2 Transfer Stacks. The membranes were blocked with 5% nonfat milk in TBS-T buffer (50 mM Tris-HCL, pH 7.6; 150 mM NaCl; and 0.05% Tween) and probed with primary antibodies (1:1000 dilution) overnight at 4° C. After three washes with TBS-T (10 min/wash), the membranes were incubated with an appropriate peroxidase-conjugated secondary antibody (Cell Signaling Technology, USA) for 1 hour at rt. After three washes with TBS-T, the proteins of interest were detected with ECL Western Blotting Detection Reagents and captured with an Azure imaging system. The band intensities were determined using ImageJ software and normalized to loading control β-actin or GAPDH. The primary antibodies Bcl-xL (#2762), Bcl-2 (#2872s), and GAPDH (#5174) were purchased from Cell Signaling Technology.
For orientation: In western blotting, separated proteins are transferred to a membrane and probed.

A value given as a limit tells only on which side of the number the result lay.

`Cc1ncsc1-c1ccc([C@H](C)NC(=O)[C@@H]2C[C@@H](O)CN2C(=O)[C@@H](NC(=O)CCCCCC(=O)N2CCN(CC[C@H](CSc3ccccc3)Nc3ccc(S(=O)(=O)NC(=O)c4ccc(N5CCN(CC6=C(C78CC(C(F)F)(C7)C8)CC(C)(C)CC6)CC5)cc4)cc3S(=O)(=O)C(F)(F)F)CC2)C(C)(C)C)cc1` [Example 6, (2S,4R)-1-((S)-2-(7-(4-((R)-3-((4-(N-(4-(4-((2-(3-(difluoromethyl)bicyclo[1.1.1]pentan-1-yl)-4,4-dimethylcyclohex-1-en-1-yl)methyl)piperazin-1-yl)benzoyl)sulfamoyl)-2-((trifluoromethyl)sulfonyl)phenyl)amino)-4-(phenylthio)butyl)piperazin-1-yl)-7-oxoheptanamido)-3,3-dimethylbutanoyl)-4-hydroxy-N—((S)-1-(4-(4-methylthiazol-5-yl)phenyl)ethyl)pyrrolidine-2-carboxamide]: the IC50 in the experiment with MOLT-4 cells lay in the range of 50 to 150 nM. Moreover, on Bcl-xL, the “BCL-xL degradation in MOLT-4 cells” value was “induce BCL-xL degradation”; the “BCL-xL degradation in MOLT-4 cells, dose dependence” value is given as “can induce BCL-xL degradation in MOLT-4 cells in a dose dependent manner”; the “Bcl-xL degradation with proteasome inhibitor MG132” value was “can be inhibited by proteasome inhibitor MG132”.
With `Cc1ncsc1-c1ccc([C@H](C)NC(=O)[C@@H]2C[C@@H](O)CN2C(=O)[C@@H](NC(=O)CCCCCC(=O)N2CCN(CC[C@H](CSc3ccccc3)Nc3ccc(S(=O)(=O)NC(=O)c4ccc(N5CCN(CC6=C(C78CC(C)(C7)C8)CC(C)(C)CC6)CC5)cc4)cc3S(=O)(=O)C(F)(F)F)CC2)C(C)(C)C)cc1` [Example 9, (2S,4R)-1-((S)-2-(7-(4-((R)-3-((4-(N-(4-(4-((4,4-dimethyl-2-(3-methylbicyclo[1.1.1]pentan-1-yl)cyclohex-1-en-1-yl)methyl)piperazin-1-yl)benzoyl)sulfamoyl)-2-((trifluoromethyl)sulfonyl)phenyl)amino)-4-(phenylthio)butyl)piperazin-1-yl)-7-oxoheptanamido)-3,3-dimethylbutanoyl)-4-hydroxy-N—((S)-1-(4-(4-methylthiazol-5-yl)phenyl)ethyl)pyrrolidine-2-carboxamide], in the experiment with MOLT-4 cells, the 50% inhibitory concentration (IC50) was in the range of 50 to 150 nM. Further, on Bcl-xL, the “BCL-xL degradation in MOLT-4 cells” value is reported as “induce BCL-xL degradation”.
Taken in the same sequence, the figures for `Cc1ncsc1-c1ccc([C@H](C)NC(=O)[C@@H]2C[C@@H](O)CN2C(=O)[C@@H](NC(=O)CCCCCCCC(=O)N2CCN(CC[C@H](CSc3ccccc3)Nc3ccc(S(=O)(=O)NC(=O)c4ccc(N5CCN(CC6=C(C78CC(C)(C7)C8)CC(C)(C)CC6)CC5)cc4)cc3S(=O)(=O)C(F)(F)F)CC2)C(C)(C)C)cc1` [Example 24, (2S,4R)-1-((S)-2-(9-(4-((R)-3-((4-(N-(4-(4-((4,4-dimethyl-2-(3-methylbicyclo[1.1.1]pentan-1-yl)cyclohex-1-en-1-yl)methyl)piperazin-1-yl)benzoyl)sulfamoyl)-2-((trifluoromethyl)sulfonyl)phenyl)amino)-4-(phenylthio)butyl)piperazin-1-yl)-9-oxononanamido)-3,3-dimethylbutanoyl)-4-hydroxy-N—((S)-1-(4-(4-methylthiazol-5-yl)phenyl)ethyl)pyrrolidine-2-carboxamide] were 50 to 150 nM and “induce BCL-xL degradation”.
The like results for `Cc1ncsc1-c1ccc([C@H](C)NC(=O)[C@@H]2C[C@@H](O)CN2C(=O)[C@@H](NC(=O)CCCCCCN2CCN(CC[C@H](CSc3ccccc3)Nc3ccc(S(=O)(=O)NC(=O)c4ccc(N5CCN(CC6=C(C78CC(C)(C7)C8)CC(C)(C)CC6)CC5)cc4)cc3S(=O)(=O)C(F)(F)F)CC2)C(C)(C)C)cc1` [Example 25, (2S,4R)-1-((S)-2-(7-(4-((R)-3-((4-(N-(4-(4-((4,4-dimethyl-2-(3-methylbicyclo[1.1.1]pentan-1-yl)cyclohex-1-en-1-yl)methyl)piperazin-1-yl)benzoyl)sulfamoyl)-2-((trifluoromethyl)sulfonyl)phenyl)amino)-4-(phenylthio)butyl)piperazin-1-yl)heptanamido)-3,3-dimethylbutanoyl)-4-hydroxy-N—((S)-1-(4-(4-methylthiazol-5-yl)phenyl)ethyl)pyrrolidine-2-carboxamide] were, in that order, 50 to 150 nM and “induce BCL-xL degradation”.
For the molecule `Cc1ncsc1-c1ccc([C@H](C)NC(=O)[C@@H]2C[C@@H](O)CN2C(=O)[C@@H](NC(=O)CCCCCCCN(C)CC[C@H](CSc2ccccc2)Nc2ccc(S(=O)(=O)NC(=O)c3ccc(N4CCN(CC5=C(C67CC(C(F)F)(C6)C7)CC(C)(C)CC5)CC4)cc3)cc2S(=O)(=O)C(F)(F)F)C(C)(C)C)cc1` [Example 28, (2S,4R)-1-((S)-2-(8-(((R)-3-((4-(N-(4-(4-((2-(3-(difluoromethyl)bicyclo[1.1.1]pentan-1-yl)-4,4-dimethylcyclohex-1-en-1-yl)methyl)piperazin-1-yl)benzoyl)sulfamoyl)-2-((trifluoromethyl)sulfonyl)phenyl)amino)-4-(phenylthio)butyl)(methyl)amino)octanamido)-3,3-dimethylbutanoyl)-4-hydroxy-N—((S)-1-(4-(4-methylthiazol-5-yl)phenyl)ethyl)pyrrolidine-2-carboxamide], in the experiment with MOLT-4 cells, the IC50 is 50 to 150 nM. Moreover, on Bcl-xL, the “BCL-xL degradation in MOLT-4 cells” value is on record as “induce BCL-xL degradation”.
Turning to `CC1(C)CCC(CN2CCN(c3ccc(C(=O)NS(=O)(=O)c4ccc(N[C@H](CCN5CCN(CCCC#Cc6ccc7c(c6)CN(C6CCC(=O)NC6=O)C7=O)CC5)CSc5ccccc5)c(S(=O)(=O)C(F)(F)F)c4)cc3)CC2)=C(C23CC(C(F)F)(C2)C3)C1` (stereo partly shown) [Example 30], the IC50 in the experiment on MOLT-4 cells is ≤ 50 nM. Also, at Bcl-xL, the “BCL-xL degradation in MOLT-4 cells, dose dependence” value is on record as “can induce BCL-xL degradation in MOLT-4 cells in a dose dependent manner” and the “Bcl-xL degradation with proteasome inhibitor MG132” value is “can be inhibited by proteasome inhibitor MG132”.
Take `Cc1ncsc1-c1ccc([C@H](C)NC(=O)[C@@H]2C[C@@H](O)CN2C(=O)[C@@H](NC(=O)CCCCC(=O)N(C)C2CCN(CC[C@H](CSc3ccccc3)Nc3ccc(S(=O)(=O)NC(=O)c4ccc(N5CCN(CC6=C(C78CC(C(F)F)(C7)C8)CC(C)(C)CC6)CC5)cc4)cc3S(=O)(=O)C(F)(F)F)CC2)C(C)(C)C)cc1` [Example 43, N1-(1-((R)-3-((4-(N-(4-(4-((2-(3-(difluoromethyl)bicyclo[1.1.1]pentan-1-yl)-4,4-dimethylcyclohex-1-en-1-yl)methyl)piperazin-1-yl)benzoyl)sulfamoyl)-2-((trifluoromethyl)sulfonyl)phenyl)amino)-4-(phenylthio)butyl)piperidin-4-yl)-N6-((S)-1-((2S,4R)-4-hydroxy-2-(((S)-1-(4-(4-methylthiazol-5-yl)phenyl)ethyl)carbamoyl)pyrrolidin-1-yl)-3,3-dimethyl-1-oxobutan-2-yl)-N1-methyladipamide]: the IC50 in the experiment with MOLT-4 cells lay in the range of 50 to 150 nM. In addition, at Bcl-xL, the “BCL-xL degradation in MOLT-4 cells” value is “induce BCL-xL degradation”.
With `Cc1cc([C@H](C(=O)N2C[C@H](O)C[C@H]2C(=O)N[C@@H](CC(=O)NCCCCCC(=O)N2CCN(CC[C@H](CSc3ccccc3)Nc3ccc(S(=O)(=O)NC(=O)c4ccc(N5CCN(CC6=C(C78CC(C(F)F)(C7)C8)CC(C)(C)CC6)CC5)cc4)cc3S(=O)(=O)C(F)(F)F)CC2)c2ccc(-c3scnc3C)cc2)C(C)C)on1` [Example 50, (2S,4R)—N—((S)-3-((6-(4-((R)-3-((4-(N-(4-(4-((2-(3-(difluoromethyl)bicyclo[1.1.1]pentan-1-yl)-4,4-dimethylcyclohex-1-en-1-yl)methyl)piperazin-1-yl)benzoyl)sulfamoyl)-2-((trifluoromethyl)sulfonyl)phenyl)amino)-4-(phenylthio)butyl)piperazin-1-yl)-6-oxohexyl)amino)-1-(4-(4-methylthiazol-5-yl)phenyl)-3-oxopropyl)-4-hydroxy-1-((R)-3-methyl-2-(3-methylisoxazol-5-yl)butanoyl)pyrrolidine-2-carboxamide], the IC50 with MOLT-4 cells was ≥ 150 nM.
For the molecule `Cc1cc([C@@H](C(=O)N2C[C@H](O)C[C@H]2C(=O)N[C@@H](CC(=O)NCCCCCC(=O)N2CCN(CC[C@H](CSc3ccccc3)Nc3ccc(S(=O)(=O)NC(=O)c4ccc(N5CCN(CC6=C(C78CC(C(F)F)(C7)C8)CC(C)(C)CC6)CC5)cc4)cc3S(=O)(=O)C(F)(F)F)CC2)c2ccc(-c3scnc3C)cc2)C(C)C)on1` [Example 56, (2S,4R)—N—((S)-3-((6-(4-((R)-3-((4-(N-(4-(4-((2-(3-(difluoromethyl)bicyclo[1.1.1]pentan-1-yl)-4,4-dimethylcyclohex-1-en-1-yl)methyl)piperazin-1-yl)benzoyl)sulfamoyl)-2-((trifluoromethyl)sulfonyl)phenyl)amino)-4-(phenylthio)butyl)piperazin-1-yl)-6-oxohexyl)amino)-1-(4-(4-methylthiazol-5-yl)phenyl)-3-oxopropyl)-4-hydroxy-1-((S)-3-methyl-2-(3-methylisoxazol-5-yl)butanoyl)pyrrolidine-2-carboxamide], the IC50 in the experiment on MOLT-4 cells was ≥ 150 nM.

The IC50 is the concentration needed to halve the response being measured.
